Source: US8697736B2, “1H-benzimidazole-4-carboxamides substituted with phenyl at the 2-position are potent PARP inhibitors” (AbbVie Inc., priority 2005, dated 2014)

Tested on: MX-1 Breast Carcinoma Xenograft
Experiment: PARP inhibitors in combination with cisplatin in an early staged MX-1 breast carcinoma xenograft model
Assay type: in vivo, female SCID mice
Conditions: average tumor volume at Day 48; PARPi 25 or 0 mg/kg/day s.c. OMP x7 from day 16 + cisplatin 6 mg/kg/day i.p. qd x1 on day 18; footnote a not given; in mm³ (unit assumed)
Protocol: PARP Inhibitors in Combination with Cisplatin in an Early Staged MX-1 Breast Carcinoma Xenograft Model
0.2 cc of 1:10 MX-1 tumor brei, was injected subcutaneously into the flank of female SCID mice (Charles River Labs) on study day 0. On day 15, tumors were size matched (188±25 mm^3) and the animals were placed into one of two therapy groups:
Group 1 vehicle (s.c. OMP×7)+Cisplatin 6 mg/kg/day (i.p., qd×1)
Group 2 PARPi 25 mg/kg/day (s.c. OMP×7)+Cisplatin 6 mg/kg/day (i.p., qd×1) The vehicle for both the PARP inhibitor and cisplatin was 0.9% NaCl. There were 8-10 […] in each group. Treatment with the PARPi began on day 16 while cisplatin treatment was started on day 18. At various intervals following tumor cell inoculation, the individual tumor dimensions were serially measured using calibrated microcalipers and the tumor volumes calculated according to the formula V=L×W^2/2 (V:volume, L:length, W:width). Mice were humanely euthanized when the tumor volumes reached a predetermined size.

Q: `N.N.[Cl][Pt][Cl]` [Vhl (PARPi)/Cis, Cisplatin] was tested. Which “Tumor Volume (Day 48)” value did it give?
A: 1389 ± 300
